# Laboratory results from patent US20090318492A1, “INDOLE COMPOUNDS HAVING C4-ACIDIC SUBSTITUENTS AND USE THEREOF AS PHOSPHOLIPASE-A2 INHIBITORS” (priority 2005, published 2009).
# How the values were obtained:
# [1] = tested on: LDL receptor knockout mice (B6.129S7-Ldlrtm1Her); assay: Example 11 LDL receptor knockout mice; type: in vivo, mouse; details: low fat control diet (D12328) with vs without test article
# Description: Mice lack an enzyme found in humans, cholesterol ester transfer protein (CETP), which is responsible for the transfer of cholesterol from high density lipoproteins (HDL) to the ApoB-containing lipoproteins such as very low density lipoproteins (VLDL) and low density lipoproteins (LDL). Consequently, LDL cholesterol levels in wild-type mice are very low compared to those seen in humans. The low density lipoprotein receptor (LDLR) is involved with clearing LDL and lipoprotein remnants containing apoE. If the LDLR is inactivated, LDL cholesterol levels rise to levels seen in humans. On a normal rodent diet, the LDL cholesterol levels in LDLR deficient mice are elevated compared to wild-type mice. […]
# In these studies and the accompanying figures, Diet D12328 from Research Diets is referred to as the “Low Fat” or Control diet, while Diet D12079B from Research Diets is referred to as the “Western” diet. […] The Test Article content was calculated such that ad libitum consumption by the animals would deliver doses (in mg of Test Article per Kg animal weight per day) approximating those listed in Table 6.
# Animals were maintained on the diets for twelve weeks. Body weights were recorded weekly. […] The serum was analyzed for total cholesterol, LDL cholesterol, HDL cholesterol, and triglycerides (TG). […]
# [2] = target: T1, human group 1B PLA2 (hps PLA2) (Homo sapiens, UniProt P04054); assay: Example 8 fluorimetric PLA2 inhibition assay (PPyrPM), human enzyme; type: biochemical
# T1 construct: made in house; host or cells: E. coli
# T1 sequence (P04054 23-148): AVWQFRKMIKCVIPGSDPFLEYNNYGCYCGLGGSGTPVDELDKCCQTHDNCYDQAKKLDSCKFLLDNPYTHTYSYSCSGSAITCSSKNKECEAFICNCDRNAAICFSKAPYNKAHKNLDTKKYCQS
# Description: In this example, a fluorimetric assay procedure was used to evaluate the indole and indole-related compounds of the invention as inhibitors of group 1B phospholipase A2 (PLA2) from human, mouse and porcine. A description of this assay is found in articles: Leslie, C C and Gelb, M H (2004) Methods in Molecular Biology “Assaying phospholipase A2 activity”, 284:229-242; Singer, A G, et al. (2002) Journal of Biological Chemistry “Interfacial kinetic and binding properties of the complete set of human and mouse groups I, II, V, X, and XII secreted phospholipases A2”, 277:48535-48549, which are incorporated herein as references.
# In general, this assay used a phosphatidylmethanol substrate with a pyrene fluorophore on the terminal end of the sn-2 fatty acyl chain. Without being bound by theory, close proximity of the pyrenes from neighboring phospholipids in a phospholipid vesicle caused the spectral properties to change relative to that of monomeric pyrene. Bovine serum albumin was present in the aqueous phase and captured the pyrene fatty acid when it is liberated from the glycerol backbone owing to the PLA2-catalyzed reaction. […] The effect of a given inhibitor and inhibitor concentration on human, mouse and porcine phospholipase was determined. […]
# The following procedure was performed to evaluate the inhibitory potency of the evaluated compounds. • 1. […]
structure (smiles),measurement,setting,value
"Cc1c(C(=O)C(N)=O)c2c(OCC(=O)NS(=O)(=O)CCCC(=O)O)cccc2n1Cc1ccccc1 [ILY-IV-40, 4-[2-(3-Aminooxalyl-1-benzyl-2-methyl-1H-indol-4-yloxy)-acetylsulfamoyl]-butyric acid]",effect in animals fed a low fat control diet,[1],No or little effect
same,IC50,[2],390 nM
